Experimental data from the NIST ThermoML archive (doi:10.1021/je025606c).

Assays:
[1] = Liquid; for kinematic viscosity: Capillary tube (Ostwald / Ubbelohde) method; for mass density: 1000 kPa, Vibrating tube method
[2] = molar heat capacity at constant pressure; conditions: Liquid

CCCCOCCOCCOCCOCCCC [5,8,11,14-tetraoxaoctadecane]
Conditions | kinematic viscosity [m2/s] | molar heat capacity at constant pressure [J/K/mol]
[1], 283.15 K, 101.33 kPa | 5.42e-06 | –
[1], 293.15 K, 101.33 kPa | 4.16e-06 | –
[1], 303.15 K, 101.33 kPa | 3.3e-06 | –
[1], 313.15 K, 101.33 kPa | 2.7e-06 | –
[1], 323.15 K, 101.33 kPa | 2.25e-06 | –
[1], 333.15 K, 101.33 kPa | 1.92e-06 | –
[1], 343.15 K, 101.33 kPa | 1.67e-06 | –
[1], 353.15 K, 101.33 kPa | 1.46e-06 | –
[1], 363.15 K, 101.33 kPa | 1.3e-06 | –
[1], 373.15 K, 101.33 kPa | 1.17e-06 | –
[1], 383.15 K, 101.33 kPa | 1.04e-06 | –
[1], 393.15 K, 101.33 kPa | 9.49e-07 | –
[1], 403.15 K, 101.33 kPa | 8.68e-07 | –
[1], 413.15 K, 101.33 kPa | 7.98e-07 | –
[1], 423.15 K, 101.33 kPa | 7.37e-07 | –
[2], 312.57 K, 1000 kPa | – | 544.45
[2], 322.47 K, 1000 kPa | – | 547.86
[2], 332.37 K, 1000 kPa | – | 553.9
[2], 342.27 K, 1000 kPa | – | 559.14
[2], 352.18 K, 1000 kPa | – | 564.65
[2], 362.08 K, 1000 kPa | – | 571.48
[2], 371.98 K, 1000 kPa | – | 578.82
[2], 381.88 K, 1000 kPa | – | 584.33
[2], 391.78 K, 1000 kPa | – | 589.58
[2], 401.68 K, 1000 kPa | – | 597.71
[2], 411.58 K, 1000 kPa | – | 603.75
[2], 421.48 K, 1000 kPa | – | 612.15

[1]
Conditions | mass density [kg/m3]
283.15 K | 926.1
293.15 K | 917.7
303.15 K | 909.4
313.15 K | 901.2
323.15 K | 893
333.15 K | 884.8
343.15 K | 876.5
353.15 K | 868.2
363.15 K | 859.8
373.15 K | 851.4
383.15 K | 843
393.15 K | 834.5
403.15 K | 826.1
413.15 K | 817.6
423.15 K | 809.1

CCOCCOCCOCC [diethylene glycol diethyl ether]
Conditions | kinematic viscosity [m2/s] | molar heat capacity at constant pressure [J/K/mol]
[1], 283.15 K, 101.33 kPa | 1.84e-06 | –
[1], 293.15 K, 101.33 kPa | 1.5e-06 | –
[1], 303.15 K, 101.33 kPa | 1.27e-06 | –
[1], 313.15 K, 101.33 kPa | 1.09e-06 | –
[1], 323.15 K, 101.33 kPa | 9.56e-07 | –
[1], 333.15 K, 101.33 kPa | 8.48e-07 | –
[1], 343.15 K, 101.33 kPa | 7.6e-07 | –
[1], 353.15 K, 101.33 kPa | 6.91e-07 | –
[1], 363.15 K, 101.33 kPa | 6.33e-07 | –
[1], 373.15 K, 101.33 kPa | 5.77e-07 | –
[1], 383.15 K, 101.33 kPa | 5.32e-07 | –
[1], 393.15 K, 101.33 kPa | 4.93e-07 | –
[1], 403.15 K, 101.33 kPa | 4.59e-07 | –
[1], 413.15 K, 101.33 kPa | 4.29e-07 | –
[1], 423.15 K, 101.33 kPa | 4.02e-07 | –
[2], 312.57 K, 1000 kPa | – | 349.11
[2], 322.47 K, 1000 kPa | – | 351.22
[2], 332.37 K, 1000 kPa | – | 353.33
[2], 342.27 K, 1000 kPa | – | 355.44
[2], 352.18 K, 1000 kPa | – | 358.68
[2], 362.08 K, 1000 kPa | – | 360.79
[2], 371.98 K, 1000 kPa | – | 364.85
[2], 381.88 K, 1000 kPa | – | 368.9
[2], 391.78 K, 1000 kPa | – | 372.15
[2], 401.68 K, 1000 kPa | – | 377.01
[2], 411.58 K, 1000 kPa | – | 380.75
[2], 421.48 K, 1000 kPa | – | 384.8

[1]
Conditions | mass density [kg/m3]
283.15 K | 917.4
293.15 K | 907.9
303.15 K | 898.4
313.15 K | 889
323.15 K | 879.5
333.15 K | 870
343.15 K | 860.2
353.15 K | 850
363.15 K | 840.2
373.15 K | 830.3
383.15 K | 820.4
393.15 K | 810.3
403.15 K | 800
413.15 K | 789.7
423.15 K | 779.2

COCC(C)OCC(C)OC (configuration not stated) [2-methoxy-1-(2-methoxy-1-methylethoxy)propane]
Conditions | kinematic viscosity [m2/s] | molar heat capacity at constant pressure [J/K/mol]
[1], 283.15 K, 101.33 kPa | 1.41e-06 | –
[1], 293.15 K, 101.33 kPa | 1.2e-06 | –
[1], 303.15 K, 101.33 kPa | 1.03e-06 | –
[1], 313.15 K, 101.33 kPa | 9.03e-07 | –
[1], 323.15 K, 101.33 kPa | 8.01e-07 | –
[1], 333.15 K, 101.33 kPa | 7.19e-07 | –
[1], 343.15 K, 101.33 kPa | 6.5e-07 | –
[1], 353.15 K, 101.33 kPa | 5.93e-07 | –
[1], 363.15 K, 101.33 kPa | 5.51e-07 | –
[1], 373.15 K, 101.33 kPa | 5.06e-07 | –
[1], 383.15 K, 101.33 kPa | 4.69e-07 | –
[1], 393.15 K, 101.33 kPa | 4.37e-07 | –
[1], 403.15 K, 101.33 kPa | 4.07e-07 | –
[1], 413.15 K, 101.33 kPa | 3.81e-07 | –
[1], 423.15 K, 101.33 kPa | 3.59e-07 | –
[2], 312.57 K, 1000 kPa | – | 328.67
[2], 322.47 K, 1000 kPa | – | 332.56
[2], 332.37 K, 1000 kPa | – | 336.62
[2], 342.27 K, 1000 kPa | – | 340.35
[2], 352.18 K, 1000 kPa | – | 345.22
[2], 362.08 K, 1000 kPa | – | 349.92
[2], 371.98 K, 1000 kPa | – | 354.14
[2], 381.88 K, 1000 kPa | – | 359.49
[2], 391.78 K, 1000 kPa | – | 364.69
[2], 401.68 K, 1000 kPa | – | 369.71
[2], 411.58 K, 1000 kPa | – | 373.93
[2], 421.48 K, 1000 kPa | – | 381.23

[1]
Conditions | mass density [kg/m3]
283.15 K | 913
293.15 K | 903.4
303.15 K | 894
313.15 K | 884.8
323.15 K | 875.4
333.15 K | 866
343.15 K | 856.5
353.15 K | 846.9
363.15 K | 837
373.15 K | 827.2
383.15 K | 817.2
393.15 K | 807.2
403.15 K | 797.1
413.15 K | 786.8
423.15 K | 776.3

CCCCOCCOCCOCCCC [5,8,11-trioxapentadecane]
Conditions | kinematic viscosity [m2/s] | molar heat capacity at constant pressure [J/K/mol]
[1], 283.15 K, 101.33 kPa | 3.36e-06 | –
[1], 293.15 K, 101.33 kPa | 2.69e-06 | –
[1], 303.15 K, 101.33 kPa | 2.21e-06 | –
[1], 313.15 K, 101.33 kPa | 1.86e-06 | –
[1], 323.15 K, 101.33 kPa | 1.59e-06 | –
[1], 333.15 K, 101.33 kPa | 1.38e-06 | –
[1], 343.15 K, 101.33 kPa | 1.22e-06 | –
[1], 353.15 K, 101.33 kPa | 1.08e-06 | –
[1], 363.15 K, 101.33 kPa | 9.68e-07 | –
[1], 373.15 K, 101.33 kPa | 8.72e-07 | –
[1], 383.15 K, 101.33 kPa | 7.95e-07 | –
[1], 393.15 K, 101.33 kPa | 7.28e-07 | –
[1], 403.15 K, 101.33 kPa | 6.7e-07 | –
[1], 413.15 K, 101.33 kPa | 6.21e-07 | –
[1], 423.15 K, 101.33 kPa | 5.78e-07 | –
[2], 312.57 K, 1000 kPa | – | 456.53
[2], 322.47 K, 1000 kPa | – | 460.9
[2], 332.37 K, 1000 kPa | – | 465.49
[2], 342.27 K, 1000 kPa | – | 470.51
[2], 352.18 K, 1000 kPa | – | 475.75
[2], 362.08 K, 1000 kPa | – | 480.33
[2], 371.98 K, 1000 kPa | – | 486.88
[2], 381.88 K, 1000 kPa | – | 493.65
[2], 391.78 K, 1000 kPa | – | 500.42
[2], 401.68 K, 1000 kPa | – | 505.44
[2], 411.58 K, 1000 kPa | – | 512.21
[2], 421.48 K, 1000 kPa | – | 517.89

[1]
Conditions | mass density [kg/m3]
283.15 K | 891.6
293.15 K | 883.2
303.15 K | 875
313.15 K | 866.8
323.15 K | 858.5
333.15 K | 850.4
343.15 K | 842.1
353.15 K | 833.7
363.15 K | 824.9
373.15 K | 816.5
383.15 K | 807.9
393.15 K | 799.4
403.15 K | 790.8
413.15 K | 782.1
423.15 K | 773.3

CCOCCOCC [1,2-diethoxyethane]
Conditions | kinematic viscosity [m2/s] | molar heat capacity at constant pressure [J/K/mol]
[1], 283.15 K, 101.3 kPa | 9.5e-07 | –
[1], 293.15 K, 101.3 kPa | 8.22e-07 | –
[1], 303.15 K, 101.3 kPa | 7.28e-07 | –
[1], 313.15 K, 101.3 kPa | 6.48e-07 | –
[1], 323.15 K, 101.3 kPa | 5.84e-07 | –
[1], 333.15 K, 101.3 kPa | 5.32e-07 | –
[1], 343.15 K, 101.3 kPa | 4.87e-07 | –
[2], 312.57 K, 1 kPa | – | 264.59
[2], 322.47 K, 1 kPa | – | 265.54
[2], 332.37 K, 1 kPa | – | 268.37
[2], 342.27 K, 1 kPa | – | 270.86
[2], 352.18 K, 1 kPa | – | 273.57
[2], 362.08 K, 1 kPa | – | 276.17
[2], 371.98 K, 1 kPa | – | 280.31
[2], 381.88 K, 1 kPa | – | 283.03
[2], 391.78 K, 1 kPa | – | 286.22
[2], 401.68 K, 1 kPa | – | 289.88
[2], 411.58 K, 1 kPa | – | 293.43
[2], 421.48 K, 1 kPa | – | 296.97

[1]
Conditions | mass density [kg/m3]
283.15 K | 862.9
293.15 K | 852.8
303.15 K | 842.6
313.15 K | 832.3
323.15 K | 822
333.15 K | 811.6
343.15 K | 801.1
353.15 K | 790.5
363.15 K | 779.6
373.15 K | 768.6
383.15 K | 757.2
393.15 K | 745.8
403.15 K | 734
413.15 K | 721.8
423.15 K | 709.4
